From paper PMC3782441, “Putative Bioactive Motif of Tritrpticin Revealed by an Antibody with Biological Receptor-Like Properties” (PLoS ONE, 2013)
≈ marks a conversion by molar mass, not a printed value. Entries after “also recorded” stand apart in the source; their conditions may differ. Where two headings read alike, the source gives them in different places. Where no end group is shown, it is not given here.

Assays:
mAb 6C6D7 = test: SPR binding of K-tritrpticin (immobilised) to mAb 6C6D7; set-up: species or system BALB/c mice; details: for ka (rate of association) / kd (rate of dissociation): BIAcore 2000, CM4 chip, bivalent model; for Kd: KD = kdiss/kass, read-out: KD (dissociation constant); for ΔGeq (Gibbs free energy at equilibrium): ΔGeq = RTlnKD
Method: (§1) Affinity measurements were based on surface plasmon resonance (SPR) technique, carried out on BIAcore 2000 (GE Healthcare). K-tritrpticin was amine coupled to a CM4 chip (~6 resonance units) and mAb 6C6D7 was injected as analyte with a 6 min association/15 min dissociation phase. Regeneration was achieved by 0.1 N HCl. Interaction curves were simultaneously fit using bivalent model in BIAevaluation program to determine KD = kdiss/kass and ΔGeq = RTlnKD, R is the universal gas constant and T is the temperature in kelvin. The temperature sensitivity of Ag association and dissociation rates of the Ab was assessed on the basis of the Arrhenius plots. The slopes of the Arrhenius plots provide the activation energy (Ea) for the corresponding steps. The individual thermodynamic parameters were calculated using the following equations: ΔHa/d = Ea-RT; ln(ka/d/T) = -ΔHa/d/RT + […] + ln(K'/h). In these equations K' represents Boltzmann’s constant and h the Planck’s constant. Using these equations, the corresponding values of ΔH, T∆S, and ΔG for association and dissociation as well as the corresponding net values at equilibrium were calculated.

[1] = tested on: different bacterial strains; test: Antimicrobial activity against different bacterial strains (radial diffusion, MIC); assay type: cell-based
Method: (§2) Radial diffusion assay using double-layered agarose involved incubating ~ 2 x 10^6 mid-log phase bacterial cells with 50 nmol of peptide solution in nutrient-poor agarose at 37°C for 3 h. […] Minimum inhibitory concentration (MIC) was determined by broth microdilution method in which ~10^4 bacterial cells in 100 µl of 10 mM phosphate buffer were incubated for with serially diluted peptide solution in a 96-well microtiter plate for 2 hrs at 37°C. Addition of LB medium subsequently was used to ascertain the minimum peptide concentration sufficient to prevent bacterial growth, observable at OD600.

E. coli BL21λD3 [2] = test: Radial diffusion assay, E. coli BL21λD3; assay type: cell-based; details: 50 nmol of peptide, 37°C for 3 h
Method: as §2

E. coli BL21λD3 [3] = assay type: cell-based; details: BL21λD3, 2 h
Method: as §2

E. coli ATCC25922 = assay type: cell-based; details: ATCC25922, 2 h
Method: as §2

calmodulin = details: ref [19]; cited from earlier work
From the text: (§3) It is now well established that antimicrobial peptides are an important component of the innate defenses in a wide variety of species. They display broad spectrum of activity, rapid killing kinetics, and a lower incidence of generating resistance and are being increasingly explored as an alternative to conventional antibiotics especially as more and more drug resistant strains emerge. As most of these peptides kill microorganisms rapidly as compared to other antibiotics, development of resistance to them also is less likely. One of the large classes of antimicrobial pepti ...

[4] = ref [20]; cited from earlier work
From the text: as §3

DNA = details: ref [17],[18]; cited from earlier work
From the text: as §3

topoisomerase I = details: ref [19]; cited from earlier work
From the text: as §3

K-tritrpticin (pig) [5] = molecular target: T1, K-tritrpticin (pig); test: SPR; BIAcore 2000; K-tritrpticin amine coupled to a CM4 chip (~6 RU), mAb 6C6D7 as analyte (62.5-1000 nM), 6 min association/15 min dissociation; bivalent model; 25 C
T1 sequence (peptide): KVRRFPWWWPFLRR

K-tritrpticin (pig) [6] = molecular target: T1, K-tritrpticin (pig); test: SPR; BIAcore 2000; K-tritrpticin amine coupled to a CM4 chip (~6 RU), mAb 6C6D7 as analyte, 6 min association/15 min dissociation; bivalent model; 30 C
K-tritrpticin (pig) [7] = molecular target: T1, K-tritrpticin (pig); test: SPR; BIAcore 2000; K-tritrpticin amine coupled to a CM4 chip (~6 RU), mAb 6C6D7 as analyte, 6 min association/15 min dissociation; bivalent model; 35 C
K-tritrpticin (pig) [8] = molecular target: T1, K-tritrpticin (pig); test: SPR; BIAcore 2000; K-tritrpticin amine coupled to a CM4 chip (~6 RU), mAb 6C6D7 as analyte, 6 min association/15 min dissociation; bivalent model; 15 C
K-tritrpticin (pig) [9] = molecular target: T1, K-tritrpticin (pig); test: SPR; BIAcore 2000; K-tritrpticin amine coupled to a CM4 chip (~6 RU), mAb 6C6D7 as analyte, 6 min association/15 min dissociation; bivalent model; 20 C
[10] = SPR binding of mAb 6C6D7 (analyte) to peptide antigen K-tritrpticin
Method: as §1

BSA = test: ELISA of hybridoma clones on BSA (negative control); assay type: binding
From the text: (§4) The sera from the immunized mouse were checked for anti-tritrpticin antibody titers. The highest responder of the group of mice was then sacrificed to harvest B cells from the spleen. The cells were allowed to fuse with the SP2/0 myeloma cells, maintained in log phase, in the presence of PEG1600 (Sigma-Aldrich). The cells were subjected to hypoxanthine-aminopterin-thymidine (Sigma) selection in DMEM (PAA Laboratories GmbH, Austria) in which only the hybrid cells are able to survive and grow. The supernatant of the wells with colonies of hybrid cells was screened for the presence of peptide recognizing Ab by ELISA, in which tritrpticin was used as coating antigen. The positive clones were further subcloned using limited dilution technique to ensure monoclonality.
(§5) The binding of the Ab from cell supernatant or in purified form, to the various peptide ligands was assayed by indirect ELISA. The peptide analogs were used as coating Ag at a concentration of 10 µg per well on 96-well immunosorbent plates. […] HRP –labeled goat anti-mouse IgG was used as secondary Ab (Jackson Immuno Research) and o-phenylenediamine (Sigma) and H2O2 were used as peroxidase substrate. Absorbance was recorded at 490 nm after addition of 1 N H2SO4.

[11] = ELISA of hybridoma clones on indolicidin; assay type: binding
From the text: as §4, §5

[12] = ELISA of hybridoma clones on tritrpticin; assay type: binding; details: culture supernatant screening
From the text: as §4, §5

[13] = equilibrium, all temperatures 15-35 °C, Arrhenius plot

Molecule: K-tritrpticin: tritrpticin with lysine introduced at the N terminus (KVRRFPWWWPFLRR)
- ka (rate of association) (mAb 6C6D7; 15 °C): 24400 M⁻¹ s⁻¹
- kd (rate of dissociation) (mAb 6C6D7; 15 °C): 0.00515 s⁻¹
- Kd (mAb 6C6D7; 15 °C): 211 nM
- ΔGeq (Gibbs free energy at equilibrium) (mAb 6C6D7; 15 °C): -8.80 kcal/mol
- ka (rate of association) (mAb 6C6D7; 20 °C): 37900 M⁻¹ s⁻¹
- kd (rate of dissociation) (mAb 6C6D7; 20 °C): 0.0115 s⁻¹
- Kd (mAb 6C6D7; 20 °C): 303 nM
- ΔGeq (Gibbs free energy at equilibrium) (mAb 6C6D7; 20 °C): -8.74 kcal/mol
- ka (rate of association) (mAb 6C6D7; 25 °C): 39100 M⁻¹ s⁻¹
- kd (rate of dissociation) (mAb 6C6D7; 25 °C): 0.0137 s⁻¹
- Kd (mAb 6C6D7; 25 °C): 350 nM
- ΔGeq (Gibbs free energy at equilibrium) (mAb 6C6D7; 25 °C): -8.80 kcal/mol
- kd (rate of dissociation) (mAb 6C6D7; 30 °C): 0.0231 s⁻¹
- Kd (mAb 6C6D7; 30 °C): 545 nM
- ΔGeq (Gibbs free energy at equilibrium) (mAb 6C6D7; 30 °C): -8.68 kcal/mol
- ka (rate of association) (mAb 6C6D7; 35 °C): 54100 M⁻¹ s⁻¹
- kd (rate of dissociation) (mAb 6C6D7; 35 °C): 0.0343 s⁻¹
- Kd (mAb 6C6D7; 35 °C): 634 nM
- ΔGeq (Gibbs free energy at equilibrium) (mAb 6C6D7; 35 °C): -8.73 kcal/mol

Molecule: EHGTPPRVMSSM [unrelated peptide used as negative control, reference compound]
- formation of clearance zone ([1]; 50 nmoles of peptide, radial diffusion, different bacterial strains): did not led to the formation of clearance zone
- formation of clearance zone (E. coli BL21λD3 [2]): did not led to the formation of clearance zone

Molecule: YHDRPPPRPFKH-OH [12PhD1]
- antimicrobial activity compared with tritrpticin [1]: lower though qualitatively similar broad spectrum antimicrobial activity as tritrpticin
- antibiotic activity ([1]; radial diffusion and MIC, bacterial strains): broad spectrum antibiotic activity
- MIC (E. coli BL21λD3 [3]): 400 µM
- MIC (E. coli ATCC25922): 400 µM

Molecule: CC(C)C[C@H](NC(=O)[C@H](Cc1ccccc1)NC(=O)[C@@H]1CCCN1C(=O)[C@H](Cc1c[nH]c2ccccc12)NC(=O)[C@H](Cc1c[nH]c2ccccc12)NC(=O)[C@H](Cc1c[nH]c2ccccc12)NC(=O)[C@@H]1CCCN1C(=O)[C@H](Cc1ccccc1)NC(=O)[C@H](CCCNC(=N)N)NC(=O)[C@H](CCCNC(=N)N)NC(=O)[C@@H](N)C(C)C)C(=O)N[C@@H](CCCNC(=N)N)C(=O)N[C@@H](CCCNC(=N)N)C(=O)O [Tritrpticin]
- MIC (E. coli BL21λD3 [3]): 3.12 µM (≈ 5.94 µg/mL)
- MIC (E. coli ATCC25922): 3.12 µM (≈ 5.94 µg/mL)

Molecule: ILPWKWPWWPWRR [indolicidin, closely related cathelicidin peptide indolicidin ([…])]
- interaction with calmodulin (calmodulin): interaction
- interaction with ATP [4]: interaction
- interaction with DNA (DNA): interaction
- interaction with topoisomerase I (topoisomerase I): interaction

B1: anti-tritrpticin monoclonal antibody 6C6D7 (antibody, V domains shown)
VH: VELQESGPELVKPGASVKVSCKASGYSSTDYNMNWVKQSHGKSLEWIGSFDPYNGGITYNQKFEGKATLTVDKSSNTAFMHLNSLTSEDSAVYYCAKYFGYDAWFAYWGQGTLVTVST
VL: FIVMTQTPASLAVSLGQRATISCKASQSVDYGGDSYLNWYQQKPGQPPKLLIYAASNLESGIPARFSGSGSGTDFTLNIHPVEEEDAATYFCQQSHEDPLTFGAGTKLELR
- Kd (K-tritrpticin (pig) [5]): 350 nM
- koff (K-tritrpticin (pig) [5]): 0.0137 s⁻¹
- kon (K-tritrpticin (pig) [5]): 39100 M⁻¹ s⁻¹
- Kd (K-tritrpticin (pig) [6]): 545 nM
- koff (K-tritrpticin (pig) [6]): 0.0231 s⁻¹
- kon (K-tritrpticin (pig) [6]): 44200 M⁻¹ s⁻¹
- Kd (K-tritrpticin (pig) [7]): 634 nM
- koff (K-tritrpticin (pig) [7]): 0.0343 s⁻¹
- kon (K-tritrpticin (pig) [7]): 54100 M⁻¹ s⁻¹
- Kd (K-tritrpticin (pig) [8]): 211 nM
- koff (K-tritrpticin (pig) [8]): 0.00515 s⁻¹
- kon (K-tritrpticin (pig) [8]): 24400 M⁻¹ s⁻¹
- Kd (K-tritrpticin (pig) [9]): 303 nM
- koff (K-tritrpticin (pig) [9]): 0.0115 s⁻¹
- kon (K-tritrpticin (pig) [9]): 37900 M⁻¹ s⁻¹

B2: mAb 6C6D7: anti-tritrpticin monoclonal antibody, 6C6 subcloned as 6C6D7 (antibody, V domains shown)
VH: VELQESGPELVKPGASVKVSCKASGYSSTDYNMNWVKQSHGKSLEWIGSFDPYNGGITYNQKFEGKATLTVDKSSNTAFMHLNSLTSEDSAVYYCAKYFGYDAWFAYWGQGTLVTVST
VL: FIVMTQTPASLAVSLGQRATISCKASQSVDYGGDSYLNWYQQKPGQPPKLLIYAASNLESGIPARFSGSGSGTDFTLNIHPVEEEDAATYFCQQSHEDPLTFGAGTKLELR
- fold decrease in affinity (KD) ([10]; 15 °C to 35 °C): 3 fold
- fold increase in kdiss ([10]; 15 °C to 35 °C): approximately 7 fold
- fold increase in the association rate constant ([10]; 15 °C to 35 °C): 2 fold
- kass ([10]; 25 °C): 39100 M⁻¹ s⁻¹
- kdiss ([10]; 25 °C): 0.0137 s⁻¹
- Kd ([10]; 25 °C, read-out: affinity (KD)): 350 nM
- temperature sensitivity of dissociation phase ([10]; Arrhenius plots, 15-35 °C): more sensitive to variation in temperature in comparison with the association phase
- enthalpy contribution to binding (ΔH) [10, 13]: marginally unfavorable
- entropy contribution to binding (TΔS) [10, 13]: highly favorable

B3: 6C6: anti-tritrpticin hybridoma clone, subcloned as 6C6D7 (antibody, V domains shown)
VH: VELQESGPELVKPGASVKVSCKASGYSSTDYNMNWVKQSHGKSLEWIGSFDPYNGGITYNQKFEGKATLTVDKSSNTAFMHLNSLTSEDSAVYYCAKYFGYDAWFAYWGQGTLVTVST
VL: FIVMTQTPASLAVSLGQRATISCKASQSVDYGGDSYLNWYQQKPGQPPKLLIYAASNLESGIPARFSGSGSGTDFTLNIHPVEEEDAATYFCQQSHEDPLTFGAGTKLELR
- binding to BSA (ELISA) (BSA): negligible binding; also recorded: not able to bind
- binding to indolicidin (ELISA) [11]: not able to bind
- binding to tritrpticin (ELISA) [12]: significant binding
